From patent US12010997B2, “Systems, methods, and apparatuses for disinfection and decontamination” (priority 2020, dated 2024)

Test system: Phi6 bacteriophage (surrogate for Coronavirus and Ebola)
Format: cell-based

`[O][Cl+][O-]` [ClO2, chlorine dioxide] was tested, and the “log reduction of virions” value was 6 log, the “time in which 6-log reduction was achieved” value was “less than 90 minutes” and the “virions recovered from the coupons treated with ClO2 gas” value was “no virions were recovered”.
